Test results: patent publication US20250057858A1, “COMPOSITIONS AND METHODS FOR TREATING NEUROLOGICAL DISORDERS WITH COMBINATION PRODUCTS” (Neurotech International Ltd, priority 2021, published 2025)

Key:
COX-2 [1] = assay: COX-2 protein, NTI164 plus prednisone (Example 8); format: cell-based; conditions: PDN 5 uM; NTI164 7.5 ug/ml; Interleukin & Interferon activation =1
Description: Cells were fixed for 10 min with 4% paraformaldehyde (PFA) in PBS. After 3×5 minutes washing with PBS, cells were incubated with primary antibodies. (anti-COX2) 1:1000 overnight at 4° C., and after 3×5 minutes washing in PBS, cells were then incubated in appropriate fluorescent secondary antibody 1:250 (Invitrogen) for 2 hours at room temperature. After a final wash, as previous, cells nuclei were stained with DAPI in the mounting media. Photomicrographs were taken of the cells in three fields of view per well from duplicate wells and analysed using Fiji for area coverage of each marker.
Treatment groups include: • (1) Control: PBS Buffer • (2) Positive control: Inflammatory stimulation by Interferon gamma and Interleukin-1B activation Prednisone (PDN) concentration 5 uM • (3) Combination therapy: Prednisone (PDN) 5 uM+NTI164 concentration 7.5ug/ml
Result Analysis: Calculated as % reduction in inflammation, PDN versus Combination therapy (prednisone 5 uM+NTI164 concentration 7.5ug/ml). Student's t-test was used for statistical analysis.

TNFα = TNFα in microglial culture media, NTI164 plus psylocibin (Example 9); format: cell-based; conditions: PBS Control 1.00, Positive activation I&I 10.67
Description: Microglia media harvested following treatment initiation was centrifuged briefly to remove particulates (300 g for 10 min). The level of TNFα in the microglial culture media was measured using a Bio-Plex 200 with a 96-well magnetic plate assay according to the manufacturer's instructions (Bio-Rad). The samples were run in duplicate that were averaged for analysis. At least three samples per group were run.

[2] = test system: cells in an excitotoxic cell injury paradigm; assay: Cell death in an excitotoxic cell injury paradigm; format: cell-based
Description: Neuronal viability was quantified using MTT [3-(4,5-dimethylthiazol-2-yl-)-2,5-diphenyl-2H-tetrazolium bromide; Sigma]. NTI164 treated celled were able to increase the number of “healthy” cells under basal conditions following short term glutamate exposure. Cellular excitotoxicity was achieved via glutamate activation (3 mM). NTI164 was able to stimulate cell growth after short term glutamate induced “insult”.

COX-2 [3] = assay: COX-2 immunohistochemistry in human derived microglial cells (Example 4); format: cell-based; conditions: for COX-2 expression (Avg +/− SEM): 2 μg/ml, N=9
Description: Immunohistochemistry (Protein Level) Assay: Cells were fixed for 10 min with 4% paraformaldehyde (PFA) in PBS. After 3×5 minutes washing with PBS, cells were incubated with primary antibodies (anti-COX2) 1:1000 overnight at 4° C., and after 3×5 minutes washing in PBS, cells were then incubated in appropriate fluorescent secondary antibody 1:250 (Invitrogen) for 2 hours at room temperature. After a final wash, as previous, cells nuclei were stained with DAPI in the mounting media. Photomicrographs were taken of the cells in three fields of view per well from duplicate wells and analysed using Fiji for area coverage of each marker.
(§1) 500 mg of dried plant material of NTI164 is suspended in 20 ml of absolute ethanol (using 50 ml blue top falcon tubes appropriate for centrifugation) and stirred/shaken vigorously for 60 seconds. The tubes are then placed in a sonication bath for 10 mins at 35-40 C. Upon completion of the sonication samples are then placed in a tray shaker (200 rpm) for 30 minutes at room temperature. Once completed the samples are then centrifuged at 4400 rpm for 5 minutes. The supernatant is collected for testing and development.
Units used to describe treatments for test products and concentrations for NTI164. • a. 1/1000 dilution of extract—10 µL (stock material is NTI164—10 µL, which equates to 2 μg/ml of CBDA) • b. 1/3000 dilution of extract—3 µL (stock material is NTI164—3 µL, which equates to […] of CBDA) • c. 1/10000 dilution of extract—1 µL (stock material is NTI164—1 µL, which equates to 0.1 μg/ml of CBDA)
For the CBD sample, a pure standard (in powder form) was used. CBD 98% isolate was purchased as a reference standard from LGC Standards (London UK) (CAS No. 13956-29-1). The CBD standard reference was prepared at concentration of 1 mg/ml (in acetonitrile). CBD dilutions were made in acetonitrile as follows: 2 μg/ml; 6 μg/ml; and 0.1 μg/ml.
The final concentration of NTI164 (CBDA equivalent) and CBD that was used in these studies was 2 μg/ml.

IL-12 = assay: Multiplex cytokine assay, IL-12, microglial cells (Example 4); format: cell-based, human; conditions: 2 μg/ml
Description: (§2) Multiplex Cytokine/Chemokine Assay: Microglia media harvested following treatment initiation was centrifuged briefly to remove particulates (300 g for 10 min). Cytokine and chemokine levels in the microglial media were measured using a Bio-Plex 200 with a 96-well magnetic plate assay according to the manufacturer's instructions (Bio-Rad). Cytokines and chemokines measured included IL-1α, IL-1β, IL-2, IL-6, IL-10, IL-12 (p70), IL-13, G-CSF, GM-CSF, IFNγ, TNFα, CXCL1 (KC), CCL2 (MCP-1), and CCL5 (RANTES). All samples were run in duplicate and data were analyzed with the Bio-Plex Manager software.
as §1
(§3) Units used to describe treatments for test products and concentrations for NTI164. • a. 1/1000 dilution of extract—10 µL (stock material is NTI164—10 µL, which equates to 2 μg/ml of CBDA) • b. […]

TNF-alpha = assay: Multiplex cytokine assay, TNF-alpha, microglial cells (Example 4); format: cell-based, human; conditions: 2 μg/ml
Description: as §2, §1, §3

[4] = exposure 1 hour after inflammatory insult
[5] = exposure 1 hour prior to inflammatory insult
[6] = Interleukin and Interferon activation

C[C@]12C=CC(=O)C=C1CC[C@@H]1[C@@H]2C(=O)C[C@@]2(C)[C@H]1CC[C@]2(O)C(=O)CO [PDN, Prednisone]
COX-2 Protein (COX-2 [1]): 0.888

CN(C)CCc1c[nH]c2cccc(OP(=O)(O)O)c12 [SubP (Psylocibin), Psylocibin]
TNF-ALPHA ASSESSMENTS RESULTS (TNFα; 1 ug/ml): 4.87 | TNF-ALPHA ASSESSMENTS RESULTS (TNFα; 5 ug/ml): 9.17

C=C(C)[C@@H]1CCC(C)=C[C@H]1c1c(O)cc(CCCCC)cc1O [CBD, cannabidiol]
cell death / toxicity [2]: toxic | P, positive control vs treatment (COX-2) (COX-2 [3]; [4]): P = 0.0566 | COX-2 expression (Avg +/− SEM) (COX-2 [3]; [4]): 76.32 +/− 7.95 (SEM) | P, positive control vs treatment (COX-2) (COX-2 [3]; [5]): P = 0.3237 | COX-2 expression (Avg +/− SEM) (COX-2 [3]; [5]): 84.82 +/− 7.65 (SEM) | Statistical Significance Reduction Compared to Control Alone (P), IL-12 (IL-12): = 0.008 | IL-12, Average (IL-12; [6]): 84.40 | Statistical Significance Reduction Compared to Control Alone (P), TNF-alpha (TNF-alpha): = 0.0005 | TNF-alpha, Average (TNF-alpha; [6]): 71.13
